{
  "source": "patent US20040192734A1",
  "about": "“4-(3-aminomethylphenyl)piperidin-1-yl]-[5-(2-fluorophenylethynyl)furan-2-yl]-methanone as an inhibitor of mast cell tryptase” (AVENTIS PHARMACEUTICALS INC., priority 2002, published 2004)",
  "key": {"[1]": {"molecular_target": "T1, recombinant human β tryptase (Homo sapiens, UniProt Q15661)", "T1 construct": "made in house; host or cells: yeast cells", "T1 sequence (Q15661 31-275)": "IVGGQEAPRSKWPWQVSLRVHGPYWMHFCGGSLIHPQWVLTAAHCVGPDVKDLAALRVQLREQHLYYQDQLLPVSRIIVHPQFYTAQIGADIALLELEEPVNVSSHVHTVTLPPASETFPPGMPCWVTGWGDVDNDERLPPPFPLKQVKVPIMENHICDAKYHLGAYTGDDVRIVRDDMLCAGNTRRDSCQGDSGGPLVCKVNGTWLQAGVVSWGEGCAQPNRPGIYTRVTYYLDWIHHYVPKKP", "details": "greatest β-Tryptase inhibitory potency disclosed in U.S. application Ser. No. 09/843,126; cited from earlier work"}, "[2]": {"molecular_target": "T1, recombinant human β tryptase", "assay": "β-Tryptase Inhibition (chromogenic assay)", "assay_type": "biochemical", "details": "for Ki: chromogenic assay, substrate S2366 0.5 mM, room temperature, Ki calculated from IC50", "excerpt": "Tr0yptase inhibition activity is confirmed using either isolated human lung tryptase or recombinant human β tryptase expressed in yeast cells. Essentially equivalent results are obtained using isolated native enzyme or the expressed enzyme. The assay procedure employs a 96 well microplate (Costar 3590) using L-pyroglutamyl-L-prolyl-L-arginine-para-nitroanilide (S2366: Quadratech) as substrate (essentially as described by McEuen et. al. Biochem Pharm, 1996, 52, pages 331-340). Assays are performed at room temperature using 0.5 mM substrate (2×Km) and the microplate is read on a microplate reader (Beckman Biomek Plate reader) at 405 nm wavelength. The inhibition constants (Ki) for the compound of the present invention and other structurally related compounds, are set forth in Table 1.\nMaterials and Methods for Trtase Primary Screen (Chromogenic Assay)\nS2366 (Stock solutions of 2.5 mM).\nPurified recombinant beta Tryptase Stocks of 310 μg/mL.\nAdd 60 μL of diluted substrate (final concentration of 500 μM in assay buffer) to each well\nAdd compound in duplicates, final concentration of 20 μM, volume 20 μL\nAdd enzyme at a final concentration of 50 ng/mL in a volume of 20 μL\nTotal volume for each well is 100 μL\nAgitate briefly to mix and incubate at room temp in the dark for 30 minutes\nRead absorbencies at 405 nM\nProtocol (IC50 and Ki Determination)\nThe protocol is essentially the same as above except that the compound is added in duplicates at the following final concentrations: 0.01, 0.03, 0.1, 0.3, 1, 3, 10 uM (All dilutions carried out manually). For every assay, whether single point or IC50 determination, a standard compound is used to derive IC50 for comparison. From the IC50 value, the Ki can be calculated using the following formula:\nKi=IC50/(1+[Substrate]/Km)."}, "[3]": {"system": "Airway Hyperresponsiveness (AHR) to histamine in sensitized guinea pigs", "assay": "Guinea Pig Model of Airway Hyperreactivity", "assay_type": "in vivo", "details": "for protective effect as measured by airway resistance / protective effect as measured by lung compliance: intravenous dosing at 0.3, 1 and 3 mg/kg; for Intravenous ID50 Dynamic Lung Compliance: Cdyn40, histamine challenge; for Intravenous ID50 Dynamic Lung Compliance / Intravenous ID50 Airway Hyperresponsiveness: ovalbumin-sensitized guinea pigs; for Intravenous ID50 Airway Hyperresponsiveness: airway resistance (RL300), histamine challenge"}, "[4]": {"system": "Airway Hyperresponsiveness (AHR) to histamine in sensitized guinea pigs", "assay": "Guinea Pig Model of Airway Hyperreactivity", "assay_type": "in vivo", "details": "for protection against AHR to histamine, airway resistance: oral dosing, Structure (III) where X=H dosed at 3, 10, and 30 mg/kg; for protection against AHR to histamine, airway resistance / Oral ID50 Dynamic Lung Compliance / Oral ID50 Airway Hyperresponsiveness: 2 hours prior to ovalbumin challenge; for Oral ID50 Dynamic Lung Compliance: Cdyn40; for Oral ID50 Airway Hyperresponsiveness: airway resistance (RL300)", "procedure": "Sensitization and drug treatment: Male Hartley guinea pigs (225-250g) are sensitized with ovalbumin (0.5 mL of 1% solution, i.p. and s.c.). On day 4, animals received a booster injection (i.p.) of 0.5 mL of 1% ovalbumin. On day 21, animals are orally dosed (2 ml/kg) with either vehicle (0.5% methylcellulose/0.2% Tween 80) or test compound 2 hours prior to antigen challenge. Thirty minutes before antigen challenge the animals are also injected with mepyramine (30 mg/kg, i.p.) to prevent anaphylactic collapse. Animals are then exposed for 5 minutes to an aerosol of either saline (control animals) or 1% ovalbumin using a deVilbiss Ultraneb nebulizer.\nAHR measurement: Eighteen to twenty four hours after challenge, animals are anesthetized with a combination of ketamine (133 mg/kg) and xylazine (24 mg/kg) given intramuscularly, surgically prepared and then mounted in a whole body plethysmograph for lung function measurement. Animals were connected to Ugo-Basile ventilators delivering a tidal volume of 1 mL/100 g at a rate of 50 breaths/minute via a tracheal cannula. The jugular vein is also cannulated for histamine challenge. A water filled oesophageal cannula is placed such that transpulmonary pressure could be recorded. Transpulmonary pressure is measured as the difference between the tracheal and esophageal cannulas using a differential pressure transducer. The volume, airflow, and transpulmonary pressure signals are monitored using a pulmonary analysis system (Buxco XA software) and used to calculate pulmonary resistance (cm H2O/mL/s) and dynamic compliance (mL/cm H2O). Airway resistance and dynamic compliance were computed on a breath by breath basis. Histamine is administered intravenously and reactivity to increasing concentrations (0.1-10 μg/kg) assessed. ID50's are estimated from the RL300 (histamine concentration required to 300% increase in lung resistance) and Cdyn40 (histamine concentration required to induce a 40% decrease in dynamic lung compliance) parameters deduced from the individual […] a histamine dose-response curves."}, "[5]": {"details": "listed as compound of the present invention, trifluoroacetate"}},
  "note": "Where “and” joins values, the source holds several entries; their conditions need not be identical. Identical values can stand only once. Counter-ions that a name gives are not always drawn. Like-named read-outs stand apart in the source and are kept apart here.",
  "data": [
    {"compound": "NCc1cccc(C2CCN(C(=O)c3ccc(Cl)c(Cl)c3)CC2)c1", "note": "[[4-(3-Aminomethylphenyl)piperidin-1-yl]-(3,4-dichlorophenyl) methanonetrifluoroacetate]", "values": [
      {"measurement": "Ki", "setting": "[1]", "value": 0.031, "unit": "µM"}
    ]},
    {"compound": "NCc1cccc(C2CCN(C(=O)c3ccc(C#Cc4ccccc4)o3)CC2)c1.O=C(O)C(F)(F)F", "note": "[Structure (III) where X = H, [4-(3-aminomethylphenyl)piperidin-1-yl]-(5-phenylethynylfuran-2-yl)methanone trifluoroacetate]", "values": [
      {"measurement": "fold increase in β-Tryptase inhibitory potency", "setting": "[2]; Structure (III) where X=H versus Structure (II) where X=H", "value": 3.42, "unit": "fold"},
      {"measurement": "Ki", "setting": "[2]", "value": 0.031, "unit": "µM"},
      {"measurement": "protective effect as measured by airway resistance", "setting": "[3]", "value": "reversed airway resistance at the highest dose"},
      {"measurement": "protective effect as measured by lung compliance", "setting": "[3]", "value": "does not show any protective effects"},
      {"measurement": "Intravenous ID50 Dynamic Lung Compliance", "setting": "[3]", "value": ">3.0", "unit": "mg/kg"},
      {"measurement": "Intravenous ID50 Airway Hyperresponsiveness", "setting": "[3]", "value": "1 to 3", "unit": "mg/kg"},
      {"measurement": "effect on lung compliance", "setting": "[4]; oral dosing at 3, 10, and 30 mg/kg", "value": "No effect"},
      {"measurement": "protection against AHR to histamine, airway resistance", "setting": "[4]", "value": "protective on airway resistance, but the effects are not statistically significant"},
      {"measurement": "Oral ID50 Dynamic Lung Compliance", "setting": "[4]", "value": ">30", "unit": "mg/kg"},
      {"measurement": "Oral ID50 Airway Hyperresponsiveness", "setting": "[4]", "value": "Protective at 3,"}
    ]},
    {"compound": "NCc1cccc(C2CCN(C(=O)c3cccc(C#Cc4ccccc4)c3)CC2)c1.O=C(O)C(F)(F)F", "note": "[Structure (II) where X = H, [4-(3-aminomethylphenyl)piperidin-1-yl]-(3-phenylethynylphenyl)methanone trifluoroacetate]", "values": [
      {"measurement": "Ki", "setting": "[2]", "value": 0.106, "unit": "µM"},
      {"measurement": "protective effect as measured by airway resistance", "setting": "[3]", "value": "uniformly ineffective"},
      {"measurement": "protective effect as measured by lung compliance", "setting": "[3]", "value": "does not show any protective effects"},
      {"measurement": "Intravenous ID50 Dynamic Lung Compliance", "setting": "[3]", "value": ">3.0", "unit": "mg/kg"},
      {"measurement": "Intravenous ID50 Airway Hyperresponsiveness", "setting": "[3]", "value": ">3.0", "unit": "mg/kg"}
    ]},
    {"compound": "NCc1cccc(C2CCN(C(=O)c3ccc(C#Cc4ccccc4F)o3)CC2)c1", "note": "[Structure (III) where X = F, [4-(3-Aminomethylphenyl)piperidin-1-yl]-[5-(2-fluorophenylethynyl)furan-2-yl]-methanone trifluoroacetate]", "values": [
      {"measurement": "Ki", "setting": "[2]", "value": "0.0076 to 0.0097 µM and 0.0076 µM and 0.0097 µM"},
      {"measurement": "protective effect as measured by airway resistance", "setting": "[3]", "value": "protective at all doses"},
      {"measurement": "protective effect as measured by lung compliance", "setting": "[3]", "value": "protective at all doses"},
      {"measurement": "Intravenous ID50 Dynamic Lung Compliance", "setting": "[3]; [5]", "value": "< 0.3", "unit": "mg/kg"},
      {"measurement": "Intravenous ID50 Dynamic Lung Compliance", "setting": "[3]; trifluoroacetate", "value": "<0.3", "unit": "mg/kg"},
      {"measurement": "Intravenous ID50 Airway Hyperresponsiveness", "setting": "[3]; [5]", "value": "< 0.3", "unit": "mg/kg"},
      {"measurement": "Intravenous ID50 Airway Hyperresponsiveness", "setting": "[3]; trifluoroacetate", "value": "<0.3", "unit": "mg/kg"},
      {"measurement": "protection against AHR to histamine, airway resistance", "setting": "[4]", "value": "significantly protects against AHR to histamine"},
      {"measurement": "Oral ID50 Dynamic Lung Compliance", "setting": "[4]", "value": "1 to 2", "unit": "mg/kg"},
      {"measurement": "Oral ID50 Airway Hyperresponsiveness", "setting": "[4]", "value": "1 to 2", "unit": "mg/kg"},
      {"measurement": "effect on basal airway resistance", "setting": "[4]; sensitized guinea pigs", "value": "no effect"},
      {"measurement": "effect on basal dynamic lung compliance", "setting": "[4]; sensitized guinea pigs", "value": "no effect"}
    ]},
    {"compound": "NCc1cccc(C2CCN(C(=O)c3cccc(C#Cc4ccccc4F)c3)CC2)c1.O=C(O)C(F)(F)F", "note": "[Structure (II) where X=F, [4-(3-aminomethylphenyl)piperidin-1-yl]-[3-(2-fluorophenylethynyl)phenyl]methanone trifluoroacetate]", "values": [
      {"measurement": "fold increase in β-Tryptase inhibitory potency", "setting": "[2]; Structure (II) where X=F versus Structure (II) where X=H", "value": 1.09, "unit": "fold"},
      {"measurement": "Ki", "setting": "[2]", "value": 0.097, "unit": "µM"}
    ]}
  ]
}
